Our source for the melting point values is a melting point compilation (Tetko et al.; mined from patent text by program, amines drawn as free bases though some values may be those of a salt).

Starred links: 1 amine or outer side, 2 acyl side, 3 side chain; linkers in the order of their positions; H or OH if unused. Non-standard residues stand in square brackets, D forms with d. Residues, ends and D or L forms follow the SMILES beside them. *: point of attachment. Hyp = O=C(O)[C@@H]1C[C@@H](O)CN1; βNA = c1ccc2cc(N*)ccc2c1; 2Abz = Nc1ccccc1C(=O)O; CO = O=C([*:1])[*:2]; Bn = c1ccc(C*)cc1

Regarding `Cc1cc(=O)n(-c2cccc(Cl)c2)c2[nH]n(-c3ccccc3)c(=O)c12`, the melting point is 278 to 282 °C. The result for `COCCOc1cc2ncnc(NC3=CC(=O)C(Oc4ccccc4)=CC3=O)c2cc1OC` reads 177 to 180 °C. The result for `NNc1ccc(-c2ccc(Cl)cc2)nn1` reads 176 to 180 °C; that for `CCOC(=O)c1nc2scc(COCc3ccc(F)cc3)c2c(=O)[nH]1`, 195 to 196 °C.

As for `COc1ccc(N2CCN(c3c(C)c(C)c4c(c3C)C(O)(C(C)(C)C)C(C)(C)O4)CC2)cc1` (configuration not stated), the melting point lay within 113 to 115 °C. The result for `ClCC1CN(Cc2ccccc2)CCN1Cc1ccccc1` (configuration not stated) reads 54 to 56 °C; that for `COc1ccc(CNC(=O)C(=O)NCCc2ccccn2)c(C)c1`, 133 to 134 °C.

With `COc1ccc(S(=O)(=O)Nc2cc(NC(=O)c3ccc(Cl)c(Cl)c3)ccc2OC)cc1`, the melting point was in the range of 225 to 227 °C.

Compound `CC(C)c1ccc2c(c1)c(Sc1ccccc1)c(CCC(=O)O)n2Cc1ccc(Cl)cc1` showed a melting point of 149 to 150 °C. With `Nc1cc(=O)n(Cc2cccc(F)c2)[nH]1` the figure was 129 °C; with `O=C1Nc2cccc(Br)c2C12COc1cc3c(cc12)OCCO3` (configuration not stated), over 250 °C. Take `CCOC(=O)C1N=CSC12CCN(Cc1ccccc1)CC2` (configuration not stated): the melting point fell in the range of 67 to 68 °C. In turn, `Oc1ccc(I)nc1Cl` yielded a melting point of 142 to 143 °C. With `CCC(=O)Nc1c([N+](=O)[O-])cnn1-c1ncc(Cl)cc1Cl` the figure was 53 to 56 °C; with `N#CCNC1(c2ccccc2Cl)C(=O)Nc2ccc(Cl)cc21` (configuration not stated), 240 to 241 °C; with `N#CC(CCN1CCC(c2ccccc2)CC1)(c1ccccc1)c1ccccc1`, 88 to 89.5 °C. With `O=Cc1cc2cc(OCc3ccccc3)c(F)cc2nc1I` the figure was 210 °C; with `O=C(NCCCN1CCC(c2ccccc2)(c2ccccc2)CC1)N1C(=O)OCC1c1ccc(F)c(Cl)c1` (configuration not stated), 112 to 115 °C. The result for `CC=CC(=O)Nc1ccc(-c2ccncc2)cc1` reads 247 to 249 °C; that for `CCOCc1nc2c(N)nc3ccccc3c2n1NCc1ccccc1`, 152 to 155 °C; that for `Cc1noc(NS(=O)(=O)c2ccccc2-c2ccc(-c3ncco3)cc2CN(C)C(=O)Cc2ccccc2)c1C`, 114 to 122 °C.

In turn, `CCCn1nc2c(N)nc3ccccc3c2c1CC1(O)CCC1` gave a melting point of 191 to 193 °C.

As to `CCCCCCCCCCCCC1(C(C(=O)Nc2c(C(C)C)cccc2C(C)C)c2ccccc2)C=CNO1` (configuration not stated), the melting point was in the range of 107 to 108 °C.

The compound `COC(=O)c1ccc(Cl)c(C2(O)C(=O)N(Cc3ccc(OC)cc3OC)c3ccccc32)c1` (configuration not stated) came in with a melting point of 172 °C. With `CC(C)(O)c1ccc(-c2cnc3c(n2)N(CCN2CCOCC2)CC(=O)N3)cn1` the figure was 239 to 241 °C; with `CCCNC(=O)C1(CCCCSc2nc3ccc(OCC)cc3s2)c2ccccc2-c2ccccc21`, 112 to 114 °C; with `CCCCS(=O)(=O)NC1Cc2ccc(C3=NNC(=O)C(c4ccccc4)C3)cc2C1` (configuration not stated), 216 to 217 °C. For `CC(=O)OC1CSC(Oc2ccc(-c3sc(C)nc3C)nc2)C(OC(C)=O)C1OC(C)=O` (configuration not stated), the melting point is 174 to 177 °C. In the case of `CC(NC(=O)c1cc2ccccc2[nH]1)C(=O)O` (racemic), the melting point amounted to 240 °C. With `COc1ccc(CN(C(=O)C2CCCc3ccc(OC)cc32)c2ccc(C(C)C)cc2)cc1` (configuration not stated) the figure was 83 to 85 °C. The compound `Nc1ccc2oc(CCC(F)(F)F)cc2c1` registered a melting point of 74 °C. For `O=[N+]([O-])c1ccc(CN2CCN(CC(O)COc3cccc4[nH]c5ccccc5c34)CC2)o1` (configuration not stated), the melting point was in the range of 54 to 59 °C. `COC(=O)c1cc2cc(OC)ccc2n1C` had a melting point of 200 °C.

The compound `CN1C(=O)[C@H](NC(=O)c2cc3ccccc3[nH]2)N=C(c2ccccc2)c2ccccc21` returned a melting point of 167 to 177 °C. The result for `Cc1ccc2c(c1)c1cc(-c3ccc(Cl)cc3Cl)c(=O)n(C)c1n2CCOC1CCCCO1` (configuration not stated) reads 161 °C; that for `O=C(NCc1ccc(Cl)cc1)c1ccc2sccc2c1O`, 168 to 169 °C.

Take `CNC(=O)[C@@H]1C[C@@H](OC(C)(C)C)CN1S(=O)(=O)c1ccc(Cl)c(COc2cccc3c(-n4ccnc4)cc(C)nc23)c1Cl`: the melting point was determined as 84 °C. With `CCC(C(=O)N(C)C)n1nc(-c2ccccc2)cc1C` (configuration not stated) the figure was 117 to 120 °C. With `CC(=O)C1CCC2C3CCC4CC(O)C(OCCC#N)CC4(C)C3C(=O)CC12C` (configuration not stated) the figure was 194 to 196 °C; with `O=C(O)c1ccccc1NC(=O)[C@@H]1CCCN1C(=O)[C@@H]1C[C@@H](OCc2ccccc2)CN1C(=O)Nc1ccc2ccccc2c1` ({βNA-CO}-[Hyp](Bn)-Pro-[2Abz]-OH), 156 °C. `Cc1nc(-n2ccc(O)cc2=O)sc1C(=O)NCC1CC1` gave a melting point of 240 to 242 °C. The result for `N#Cc1c(C(=O)NC2CC2)cnn1-c1ccc(Cl)cc1` reads 204 to 206 °C. The result for `CCCCc1nc(Cl)c(Cc2nnn[nH]2)n1Cc1ccc(C(=O)c2ccccc2C(=O)O)cc1` reads 228 to 230 °C. The result for `O=Cc1ccc(O)c2oc3ccc([N+](=O)[O-])cc3c12` reads over 270 °C; that for `CC(C)N1CCN=C1c1ccccc1C(=O)c1ccc(Cl)cc1`, 114 to 117 °C; that for `CCOCCOc1ccc(-c2ccc3c(c2)C=C(C(=O)OC)CCN3C=O)cc1`, 138 to 142 °C. Regarding `CCOC(=O)C1=Cc2cc([N+](=O)[O-])ccc2OC1C(F)(F)F` (configuration not stated), the melting point lay in the range of 111 to 115 °C. The result for `CCCCC1(N(C)C)CCC(c2[nH]c3ccccc3c2CC2CCCCC2)CC1` (configuration not stated) reads 155 to 165 °C.

As to `COC(=O)/C=C\c1cnn(C)c1-c1ccc(F)cc1`, the melting point was 108 to 109 °C. The result for `O=C(Nc1ccccc1)NC(Cc1ccccc1)C(=O)Nc1c(F)cc(F)cc1F` (configuration not stated) reads 225 to 233 °C. With `CCOC(=O)C1=CC(CF)(CF)Oc2ccc(I)cc21` the figure was 89 to 90 °C. Turning to `CCOc1ccc2c(c1)n(C1CCCCC1)c(=O)n2Cc1ccc(C(=O)NC(C)(C)CN(C)C)cc1OC`, the melting point is 161 °C. `CS(=O)(=O)c1ccc(/C(=C\C2CCCCC2)C(=O)O)cc1[N+](=O)[O-]` showed a melting point of 244 to 247 °C. The result for `COc1ccc([C@@H]2Sc3ccccc3N(CCN(C)C)C(=O)[C@@H]2OC(=O)Nc2cccc(F)c2)cc1` (relative stereo) reads 111 to 113 °C.

As for `Cc1cccc(-n2c(-c3cc(-c4ccncc4)c(N4CCOCC4)s3)nc3ccccc3c2=O)c1`, the melting point was in the range of 230 to 232 °C. `CC(C)(NC(=O)CCS)C(=O)O` gave a melting point of 169 to 170 °C. The result for `CCN(CC)CC1=Cc2ccc(Cl)cc2S1(=O)=O` reads 58 to 59 °C; that for `CCCN(CCC)C1Cc2cccc3c2N(CCC3)C1` (configuration not stated), 112 to 116 °C; that for `COc1cccc(NC(=O)c2ccccc2N)c1`, 75 to 77 °C. Compound `COc1nc(C)nc2c1-c1ccc(Cl)cc1C(c1ccccc1)=NC2` returned a melting point of 185 to 187 °C. For `O=C(O)C1=Cc2cc(Br)ccc2OC1C(F)(F)F` (configuration not stated), the melting point lay in the range of 190 to 191 °C. Regarding `COc1ccc(C2CC(c3ccc(F)cc3)=NN2c2ccc(C(=O)O)cc2)cc1` (configuration not stated), the melting point came out at 218 °C. Take `CCCCc1nc2c(N)nc3ccccc3c2n1CCCC(C)=O`: the melting point was 173 to 176 °C. For the compound `CC1Cc2c(N)ccc(Cl)c2O1` (configuration not stated), the melting point is 70 °C. With `COc1ccc(NS(=O)(=O)c2ccc(N)cc2OC)cc1` the figure was 51 to 54 °C. In turn, `Clc1ccc(-c2cc(OCCCN3CCCCC3)[nH]n2)cc1` gave a melting point of 140 °C. The result for `C=CCOc1nc2cc(OC)c(OC)cc2c2ncnn12` reads 189 to 191 °C. For `CCCCOC(=O)c1ccc2c(C(=O)c3ccc(OCCN4CCCCC4)cc3)c(-c3ccc(O)cc3)sc2c1`, the melting point fell in the range of 87 to 90 °C.

On to `CC(O)/C=C/c1ncn2c1CN(C)C(=O)c1c(Cl)cccc1-2` (configuration not stated), for which the melting point lay within 232 to 233 °C. `CC/C(=C\Cn1oc(=O)[nH]c1=O)c1cccc(OCc2nc(-c3ccc(C(F)(F)F)cc3)oc2C)c1` returned a melting point of 66 to 67 °C. Compound `O=C(c1ccco1)N1N=CCC1c1ccccc1` (configuration not stated) showed a melting point of 136 to 137 °C. With `NC(=O)c1c(Cl)c(-c2ccccc2)n2c1CN(S(=O)(=O)c1ccc([N+](=O)[O-])cc1)CC2` the figure was 203 to 205 °C; with `Nc1cnc2cc3c(cc2c1-c1ccccc1Cl)CCC3`, 179 to 180 °C; with `CN1CCN(S(=O)(=O)c2cccc(NC(=O)c3cnn4c(C(F)F)cc(-c5ccc(Cl)c(Cl)c5)nc34)c2)CC1`, 229 °C. As to `CC(C(=O)O)c1ccc2oc(Cc3ccc(Cl)cc3)nc2c1` (configuration not stated), the melting point lay in the range of 135 to 137 °C. For `COCCOc1cc(OC)c2c(=O)[nH]c(-c3ccc(N4C[C@@H](C)N(C(C)=O)[C@@H](C)C4)cc3)nc2c1`, the melting point lay in the range of 225 to 227 °C. In turn, `CCOC(=O)c1cn(-c2cccc(OC3CCCC3)c2)cn1` had a melting point of 66 to 67 °C. The compound `COc1ccc(C(=O)C2=C(C)C(=O)C3C=CC=CC3C2=O)cc1` (configuration not stated) registered a melting point of 150 to 151 °C.

For the compound `O=c1[nH]c(Cl)nc2ccccc12`, the melting point was in the range of 251 to 252 °C. `CNc1c(CCO)cc(N)c([N+](=O)[O-])c1CCO` registered a melting point of 99 °C.

`CCCCCCCCCCNC(=O)c1cc(NCCC(=O)O)c(CCC(=O)O)c(C(=O)NCCCCCCCCCC)c1`: the melting point lay within 139 to 141 °C. With `CCC=C(CCC)c1c2c(nn1C)N(c1c(C)cc(C)cc1Cl)CCC2` the figure was 86.7 to 88.2 °C; with `Cc1ccc(-c2ccc(O)cc2)c(-c2ccc(OCCN3CCOCC3)cc2)n1`, 75 to 80 °C; with `COc1ccc(N(Cc2cnn(Cc3ccc(F)cc3)c2)C(=O)C2CCCc3c(O)cccc32)cc1` (configuration not stated), 143 to 146 °C. With `CN1C=C2C=C(S)N=CN2N1` the figure was over 300 °C. With `CC1c2ccccc2-c2ccccc2N1S(=O)(=O)c1ccc(O)c(C(=O)O)c1` (configuration not stated) the figure was 225 to 230 °C; with `CN(C)C=NC(C#N)=CN(C)C`, 78 to 81 °C.
